Reference: ChEMBL document CHEMBL5370554, “Discovery of a first-in-class Aurora A covalent inhibitor for the treatment of triple negative breast cancer” (Eur J Med Chem, 2023)
Calls of active or inactive are those of the source. The calls are words filed in the database; no cut-off is given here.

Tests used:
MDA-MB-231 [1] = assay: Induction of apoptosis in human MDA-MB-231 cells assessed as necrotic cells at 1.25 uM incubated for 24 hrs by Annexin V-FITC staining based flow cytometry (Rvb= 1.67%); format: functional
[2] = molecular target: T1, Aurora kinase A (Homo sapiens) (UniProt O14965); assay: Irreversible inhibition of recombinant human Aurora A (1 to 403 residues) expressed in Escherichia coli assessed as ratio of Kinact/Ki using STK-substrate 2-biotin as substrate at 0.625 to 40 uM incubated upto 7000 sec in presence of ATP by HTRF assay; settings: dose 0.625-40 µM
T1 sequence (whole entry): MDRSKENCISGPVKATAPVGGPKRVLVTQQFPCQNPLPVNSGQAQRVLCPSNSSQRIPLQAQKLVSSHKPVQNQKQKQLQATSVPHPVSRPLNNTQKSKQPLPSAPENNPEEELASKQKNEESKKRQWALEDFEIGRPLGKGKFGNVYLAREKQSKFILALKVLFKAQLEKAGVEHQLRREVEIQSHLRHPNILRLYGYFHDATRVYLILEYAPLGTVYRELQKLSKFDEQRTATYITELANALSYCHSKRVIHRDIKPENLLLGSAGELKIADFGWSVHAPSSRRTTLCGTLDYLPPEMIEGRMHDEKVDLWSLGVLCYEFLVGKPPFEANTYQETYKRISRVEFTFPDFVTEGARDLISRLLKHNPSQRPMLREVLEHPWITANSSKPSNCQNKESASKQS

[3] = molecular target: Aurora kinase B (Homo sapiens) (UniProt Q96GD4); assay: Binding affinity to Aurora B in human MDA-MB-231 cells assessed as thermal stability at 46 to 62 degreeC at 1 uM incubated for 1 hrs by […] analysis; format: cell-based
Sequence of Aurora kinase B (Homo sapiens) (Q96GD4 whole entry, the tested form may be a part): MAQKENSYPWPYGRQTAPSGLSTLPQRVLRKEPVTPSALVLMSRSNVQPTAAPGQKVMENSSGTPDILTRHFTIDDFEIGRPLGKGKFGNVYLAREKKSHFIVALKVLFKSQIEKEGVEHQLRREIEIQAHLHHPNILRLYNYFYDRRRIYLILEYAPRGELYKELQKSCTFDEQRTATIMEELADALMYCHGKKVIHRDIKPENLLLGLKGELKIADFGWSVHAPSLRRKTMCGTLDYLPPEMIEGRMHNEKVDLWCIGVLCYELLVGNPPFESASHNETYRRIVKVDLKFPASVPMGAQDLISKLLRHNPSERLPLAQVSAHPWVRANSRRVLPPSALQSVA

Aurora kinase A [4] = molecular target: T2, Aurora kinase A (Homo sapiens, UniProt O14965); assay: Inhibition of recombinant human Aurora A (1 to 403 residues) expressed in Escherichia coli using STK-substrate 2-biotin as substrate incubated for 60 mins in presence of 0.48 uM ATP by HTRF assay
T2 sequence (O14965 whole entry): T1 sequence (whole entry)

MDA-MB-231 [5] = assay: Inhibition of […] in human MDA-MB-231 cells at 1 uM incubated for 14 days by crystal violet staining based colony formation assay (Rvb= 115+/-4%); format: functional; settings: MDA-MB-231, 336 h, time 14 day
A549 = assay: Antiproliferative activity against human A549 cells assessed as inhibition of cell proliferation incubated for 48 hrs by CCK-8 assay; format: functional, cell-based; settings: A549, 48 h
MDA-MB-231 [6] = assay: Induction of apoptosis in human MDA-MB-231 cells assessed as late apoptotic cells at 5 uM incubated for 24 hrs by Annexin V-FITC staining based flow cytometry (Rvb= 6.90%); format: functional
MDA-MB-231 [7] = assay: Induction of apoptosis in human MDA-MB-231 cells assessed as necrotic cells at 5 uM incubated for 24 hrs by Annexin V-FITC staining based flow cytometry (Rvb= 1.67%); format: functional
[8] = molecular target: T1, Aurora kinase A (Homo sapiens); assay: Inhibition of Aurora A in human MDA-MB-231 cells assessed as decrease in Aurora A phosphorylation at Thr288 residue at 0.2 to 0.6 uM incubated for 1 hrs by Western blot analysis; format: cell-based; settings: dose 0.2-0.6 µM
MDA-MB-231 [9] = assay: Induction of apoptosis in human MDA-MB-231 cells assessed as necrotic cells at 2.5 uM incubated for 24 hrs by Annexin V-FITC staining based flow cytometry (Rvb= 1.67%); format: functional
MDA-MB-231 [10] = assay: Induction of apoptosis in human MDA-MB-231 cells assessed as late apoptotic cells at 1.25 uM incubated for 24 hrs by Annexin V-FITC staining based flow cytometry (Rvb= 6.90%); format: functional
[11] = Metabolic stability in Sprague-Dawley rat liver microsomes assessed as half life at 1.75 uM incubated upto 60 mins in presence of NADPH by LC-MS analysis; format: ADME, Microsome
[12] = Metabolic stability in Sprague-Dawley rat liver microsomes assessed as intrinsic clearance at 1.75 uM incubated upto 60 mins in presence of NADPH by LC-MS analysis; format: ADME, Microsome; settings: read-out: CLH
MDA-MB-231 [13] = assay: Antiproliferative activity against human MDA-MB-231 cells assessed as inhibition of cell proliferation incubated for 48 hrs by CCK-8 assay; format: functional, cell-based; settings: MDA-MB-231, 48 h
[14] = molecular target: T1, Aurora kinase A (Homo sapiens); assay: Binding affinity to Aurora A in human MDA-MB-231 cells assessed as thermal stability at 46 to 62 degreeC at 1 uM incubated for 1 hrs by […] analysis; format: cell-based
Aurora kinase A [15] = molecular target: T2, Aurora kinase A; assay: Inhibition of recombinant human Aurora A (1 to 403 residues) expressed in Escherichia coli using STK-substrate 2-biotin as substrate incubated for 40 mins in presence of 24 uM ATP by HTRF assay
[16] = Toxicity in BALB/c nude mouse xenografted with human MDA-MB-231 cells assessed as parenchymal injury in spleen at 15 mg/kg,ip every 2days for 20 days by Hematoxylin and Eosin staining based microscopy; format: organism-based; settings: in vivo, 480 h, time 20 day
MDA-MB-231 [17] = assay: Induction of apoptosis in human MDA-MB-231 cells assessed as live cells at 1.25 uM incubated for 24 hrs by Annexin V-FITC staining based flow cytometry (Rvb= 88.1%); format: functional
[18] = Toxicity in BALB/c nude mouse xenografted with human MDA-MB-231 cells assessed as parenchymal injury in liver at 15 mg/kg,ip every 2days for 20 days by Hematoxylin and Eosin staining based microscopy; format: organism-based; settings: in vivo, 480 h, time 20 day
[19] = Toxicity in BALB/c nude mouse xenografted with human MDA-MB-231 cells assessed as inflammatory cell infiltration in spleen at 15 mg/kg,ip every 2days for 20 days by Hematoxylin and Eosin staining based microscopy; format: organism-based; settings: in vivo, 480 h, time 20 day
[20] = Toxicity in BALB/c nude mouse xenografted with human MDA-MB-231 cells assessed as inflammatory cell infiltration in heart at 15 mg/kg,ip every 2days for 20 days by Hematoxylin and Eosin staining based microscopy; format: organism-based; settings: in vivo, 480 h, time 20 day
Aurora kinase A [21] = molecular target: T2, Aurora kinase A; assay: Inhibition of recombinant human Aurora A (1 to 403 residues) expressed in Escherichia coli using STK-substrate 2-biotin as substrate incubated for 40 mins in presence of 2.4uM ATP by HTRF assay
MDA-MB-231 [22] = assay: Induction of apoptosis in human MDA-MB-231 cells assessed as late apoptotic cells at 2.5 uM incubated for 24 hrs by Annexin V-FITC staining based flow cytometry (Rvb= 6.90%); format: functional
[23] = Metabolic stability in Sprague-Dawley rat liver microsomes assessed as elimination rate constant at 1.75 uM incubated upto 60 mins in presence of NADPH by LC-MS analysis; format: ADME, Microsome
[24] = Cytotoxicity against human L02 cells assessed as inhibition of cell proliferation incubated for 48 hrs by CCK-8 assay; format: toxicity, cell-based
Aurora kinase A [25] = molecular target: T2, Aurora kinase A; assay: Inhibition of recombinant human Aurora A (1 to 403 residues) expressed in Escherichia coli using FAM-labeled peptide as substrate preincubated for 10 mins followed by substrate addition and measured after 20 mins in presence of ATP by HTRF assay
Aurora kinase A [26] = molecular target: T2, Aurora kinase A; assay: Inhibition of recombinant human Aurora A (1 to 403 residues) expressed in Escherichia coli using STK-substrate 2-biotin as substrate incubated for 15 mins in presence of 24 uM ATP by HTRF assay
[27] = molecular target: T1, Aurora kinase A (Homo sapiens); assay: Covalent binding affinity to recombinant human Aurora A (1 to 403 residues) expressed in Escherichia coli assessed as dissociation rate constant by surface plasmon resonance analysis

C=CC(=O)Nc1ccc(-c2nc(Nc3cc(C)[nH]n3)c3ccc(N4CCN(C)CC4)cc3n2)cc1
Activity (MDA-MB-231 [1]): 1.83%
Ratio [2]: 6.02 10^3/M/s
Activity [3]: inactive
IC50 (Aurora kinase A [4]): 3.41 nM
inhibition at 1 µM (MDA-MB-231 [5]): 13%
IC50 (A549): 3080 nM
Activity (MDA-MB-231 [6]): 62.6%
Activity (MDA-MB-231 [7]): 0.27%
inhibition [8]: Dose-Dependent Effect
Activity (MDA-MB-231 [9]): 1.14%
Activity (MDA-MB-231 [10]): 18.1%
half-life at 1.75 µM [11]: 24.3 min
microsomal CLint at 1.75 µM [12]: 71.3 µL/min/mg
IC50 (MDA-MB-231 [13]): 1540 nM
Activity [14]: Active
IC50 (Aurora kinase A [15]): 8.34 nM
Activity [16]: Non-Toxic
Activity (MDA-MB-231 [17]): 69.5%
Activity [18]: Non-Toxic
Activity [19]: Non-Toxic
Activity [20]: Non-Toxic
IC50 (Aurora kinase A [21]): 2.77 nM
Activity (MDA-MB-231 [22]): 21%
k el at 1 h, 1.75 µM [23]: 0.000467 s⁻¹
IC50 at 48 h [24]: 23400 nM
IC50 (Aurora kinase A [25]): 1.7 nM
IC50 (Aurora kinase A [26]): 5.24 nM
Activity [27]: Active
